From patent US12053528B2, “Topical formulations comprising polyoxyl lipid or fatty acid and polyalkoxylated alcohol, and uses thereof” (Sun Pharmaceutical Industries Limited, priority 2015, dated 2024)

Experiment: Ocular tissue distribution of RX-10045 nanomicellar formulations (LC-MS/MS)
Format: in vivo, New Zealand White Rabbits
Conditions: after topical RX-10045 formulations 4x/day for 5 days
Description: A study is conducted in rabbits to test the tolerance and ocular tissue distribution of two nanomicellar formulations of active compound against matching placebos (Table 7a and 7b) and balanced saline solution (BSS). Healthy New Zealand female white rabbits (2-3 kg) are used for this study. One drop (approximately 35 μL) of study drug is applied o.d. 4×/day at two hour intervals for 5 days. One drop of BSS is applied to the contralateral eye.
Selected ocular fluids/tissues (aqueous humor, vitreous humor, conjunctiva, cornea, iris-ciliary body, lens, retina/choroid, and sclera) collected from two rabbits each in the active agent (0.15% in HCO-60, 0.1 in HCO-40) treatment groups, and from one rabbit in each of the matching placebo groups, are assayed for active compound by liquid chromatography-tandem mass spectrometry (LC-MS/MS). Warfarin-d5 and 5-HDA are used as internal standards for the analysis of RX-10045 and its active metabolite, RX-10008, respectively, in aqueous humor and vitreous humor. For the other ocular tissues (solid tissues), warfarin-d5 and phenyl acetic acid-d5 (PAA-d5) are used as the internal standards for compound 1001 and RX-10008, respectively. The analytical range for the solid tissues is 0.125-100 ng. The results of the solid tissue analyses are converted to ng/g by correcting for the amount of tissue analyzed.

C#CC[C@@H](O)/C=C/C=C/C#C[C@@H](O)CCCC(=O)OC(C)C [compound 1001]
Compound 1001 in the majority of ocular tissues: either not detected or is below the quantitation limit of the assay | Concentrations of the compound 1001 ester prodrug in the sclera and conjunctiva: sporadic, relatively low | Hydrolysis to active metabolite RX-10008 in ocular tissues: rapidly hydrolyzed
